US20240190855A1 (Relay Therapeutics, Inc., priority 2021, published 2024)
pIC50: −log10 of the molar value.

biological target: T1, CDK2/Cyclin E complex (Homo sapiens, UniProt P24941); test: CDK2/Cyclin E fluorescence-based microfluidic mobility shift assay (CDK2 Biochemical Caliper Assay); conditions: read-out: Biochemical CDK2/CyclinE Caliper IC50
T1 construct: purchased Eurofins 14-475
Method: Compounds of the present disclosure were tested in a CDK2/Cyclin E fluorescence-based microfluidic mobility shift assay (PerkinElmer).
The active wild type CDK2/Cyclin E complex was purchased from Eurofins (14-475). Compound stocks were prepared in DMSO and were serially diluted into 11 concentrations by 3-fold dilution. […] Compounds were incubated in the presence of CDK2/Cyclin E complex and ATP for 30 minutes at room temperature. Catalytic reaction was initiated with the addition of 5 uL of a 4× peptide solution containing 6 uM fluorescently label substrate peptide, FL Peptide 18 (aa sequence 5-FAM-QSPKKG, PerkinElmer, 760362) in 1× reaction buffer.
The final reaction components were 0.1 nM CDK2/Cyclin E, 2000 uM ATP and 1.5 uM FL Peptide 18 and 1% DMSO. Reactions were incubated RT for 20 hr and terminated with 75 uL of a stopping solution containing 0.5 M EDTA. Samples were analyzed using a LabChip EZ reader (PerkinElmer).

First: COCc1cc2c(Nc3cc([C@H]4C[C@@H](COc5nnccc5C(C)C)C4)[nH]n3)nccn2n1 [Example 519]
Second: COCc1cc2c(Nc3cc([C@H]4CC[C@@H](Oc5cccnc5C)C4)[nH]n3)nccn2n1 (single isomer, unassigned) [Example 511]
The pIC50 of the first is higher: at least 7.00 for the first, 4.00 to 6.00 for the second. The first is the more potent here.

Compared with c1cncc(O[C@H]2CC[C@@H](c3cc(Nc4ncnc5ncccc45)n[nH]3)C2)c1 (single isomer, unassigned) [Example 499], Cc1ncccc1O[C@H]1CC[C@@H](c2cc(Nc3ncnc4ncccc34)n[nH]2)C1 (single isomer, unassigned) [Example 487] is higher in pIC50: 6.00 to 6.60 for the first, at least 7.00 for the second.

Compared with CC(C)NC(=O)O[C@@H]1CC[C@H](c2cc(NC=O)n[nH]2)C1 (single isomer, unassigned) [Example 440], CC(C)NC(=O)O[C@H]1CC[C@@H](c2cc(Nc3ccc4c(n3)C(C)(C)NC4=O)n[nH]2)C1 (single isomer, unassigned) [Example 528] is higher in pIC50: 6.00 to 6.60 for the first, at least 7.00 for the second.

COCc1cc(C(=O)Nc2cc([C@H]3C[C@@H](CC(=O)NC(C)C)C3)[nH]n2)n(C)n1 [Example 360] and COCc1cc(C(=O)Nc2cc([C@@H]3C[C@@H](OC)[C@H](OC(=O)NC(C)C)C3)[nH]n2)n(C)n1 (single isomer, unassigned) [Example 568] fall in the same range of pIC50: 4.00 to 6.00 for the first, 4.00 to 6.00 for the second.

COCc1cc(C(=O)Nc2cc([C@H]3CC[C@@H](Oc4cccnc4C(C)C)C3)[nH]n2)n(C)n1 (single isomer, unassigned) [Example 472] and COCc1cc(C(=O)Nc2cc([C@@H]3CC[C@H](Oc4cccnc4C(C)C)C3)[nH]n2)n(C)n1 (single isomer, unassigned) [Example 473] fall in the same range of pIC50: 6.60 to 7.00 for the first, 6.60 to 7.00 for the second.

CC1(NC(=O)O[C@H]2CO[C@@H](c3cc(Nc4nccc5[nH]cnc45)n[nH]3)C2)CC1 [Example 730] and CC1(NC(=O)O[C@H]2CO[C@@H](c3cc(Nc4ncnc5[nH]ccc45)n[nH]3)C2)CC1 [Example 738] fall in the same range of pIC50: 6.00 to 6.60 for the first, 6.00 to 6.60 for the second.

COCc1cc(C(=O)Nc2cc([C@@H]3CC[C@@H](Cc4ncc(C)s4)C3)[nH]n2)n(C)n1 (single isomer, unassigned) [Example 556] and COCc1cc(C(=O)Nc2cc([C@@H]3CC[C@@H](c4ncc(C)cn4)C3)[nH]n2)n(C)n1 (single isomer, unassigned) [Example 596] fall in the same range of pIC50: 4.00 to 6.00 for the first, 4.00 to 6.00 for the second.

First: Cc1cc(CC(=O)Nc2cc([C@H]3C[C@@H](OC(=O)NC(C)C)CO3)[nH]n2)on1 (single isomer, unassigned) [Example 346]
Second: Cc1cc(CC(=O)Nc2cc([C@H]3C[C@H]3COC(=O)NC(C)C)[nH]n2)on1 (single isomer, unassigned) [Example 137]
The pIC50 of the first is higher: 6.60 to 7.00 for the first, 4.00 to 6.00 for the second.

First: COCc1cc(C(=O)Nc2cc([C@H]3C[C@@H](COc4cn[nH]c4C(C)C)C3)[nH]n2)n(C)n1 [Example 587]
Second: COCc1cc(C(=O)Nc2cc([C@@H]3CC[C@H](Oc4cn[nH]c4C(C)C)C3)[nH]n2)n(C)n1 [Example 628]
The pIC50 of the first is higher: 6.60 to 7.00 for the first, 6.00 to 6.60 for the second.

First: Cc1cnn(-c2ccnc(Nc3cc([C@H]4CC[C@@H](OC(=O)NC(C)C)C4)[nH]n3)c2)c1 (single isomer, unassigned) [Example 402]
Second: CC(C)NC(=O)N[C@@H]1CC[C@H](c2cc(Nc3ncccn3)n[nH]2)C1 (single isomer, unassigned) [Example 123]
The pIC50 of the first is higher: 6.60 to 7.00 for the first, 4.00 to 6.00 for the second. The first is the more potent here.

COCc1cc(C(=O)Nc2cc([C@@H]3CC[C@@H](c4cccc(C(C)C)n4)C3)[nH]n2)n(C)n1 (single isomer, unassigned) [Example 608] and COCc1cc(C(=O)Nc2cc([C@@H]3CC[C@H](c4ccc(C(C)C)cn4)C3)[nH]n2)n(C)n1 (single isomer, unassigned) [Example 553] fall in the same range of pIC50: 4.00 to 6.00 for the first, 4.00 to 6.00 for the second.

Cc1cc(CC(=O)Nc2cc(C3CCCC3)[nH]n2)on1 [Example 66] and Cc1cc(CC(=O)Nc2cc(C3CCNCC3)[nH]n2)on1 [Example 54] fall in the same range of pIC50: 4.00 to 6.00 for the first, 4.00 to 6.00 for the second.

COCc1cc(C(=O)Nc2cc([C@H]3CC[C@@H](Oc4nnccc4-c4ccccc4)C3)[nH]n2)n(C)n1 (single isomer, unassigned) [Example 474] and COCc1cc(C(=O)Nc2cc([C@@H]3CC[C@H](Oc4nnccc4C4CC4)C3)[nH]n2)n(C)n1 (single isomer, unassigned) [Example 471] cannot be ordered by pIC50: 6.60 to 7.00 for the first, at least 7.00 for the second.

Cn1nc(OCC(F)(F)F)cc1C(=O)Nc1cc([C@H]2C[C@@H](OC(=O)NC34CC(C3)C4)CO2)[nH]n1 [Example 881] and Cn1nc(OCC(F)(F)F)cc1C(=O)Nc1cc([C@@H]2C[C@H](OC(=O)NC34CC(C3)C4)CO2)[nH]n1 [Example 908] cannot be ordered by pIC50: at least 7.00 for the first, at least 7.00 for the second.

COCC1(NC(=O)O[C@H]2CO[C@@H](c3cc(NC(=O)c4cc(COC(F)(F)F)nn4C)n[nH]3)C2)CC1 [Example 885] and C[C@@H](NC(=O)O[C@H]1CO[C@@H](c2cc(NC(=O)c3cc(OCC(F)(F)F)nn3C)n[nH]2)C1)C1CC1 [Example 917] cannot be ordered by pIC50: at least 7.00 for the first, at least 7.00 for the second.

COCc1cc(C(=O)Nc2cc([C@@H]3CC[C@@H](c4ccc(C)nn4)C3)[nH]n2)n(C)n1 (single isomer, unassigned) [Example 574] and COCc1cc(C(=O)Nc2cc([C@@H]3CC[C@H](c4ccc(C)nn4)C3)[nH]n2)n(C)n1 (single isomer, unassigned) [Example 573] fall in the same range of pIC50: 4.00 to 6.00 for the first, 4.00 to 6.00 for the second.

COCc1cc2c(Nc3cc([C@H]4C[C@@H](OC(=O)N[C@@H](C)C(F)F)CO4)[nH]n3)nccn2n1 [Example 763] and COCc1cc2c(Nc3cc([C@H]4C[C@@H](OC(=O)N[C@@H](C)C(F)(F)F)CO4)[nH]n3)nccn2n1 [Example 721] cannot be ordered by pIC50: at least 7.00 for the first, at least 7.00 for the second.

Cc1cc(CC(=O)Nc2cc([C@H]3CC[C@@H](CC(=O)O)C3)[nH]n2)on1 (single isomer, unassigned) [Example 341] and Cc1cncc(O[C@H]2CC[C@@H](c3cc(NC(=O)Cc4cc(C)no4)n[nH]3)C2)c1 (single isomer, unassigned) [Example 354] fall in the same range of pIC50: 4.00 to 6.00 for the first, 4.00 to 6.00 for the second.

First: Cc1cc(CC(=O)Nc2cc([C@@H]3CC[C@H](Oc4cnccc4C4CC4)C3)[nH]n2)on1 (single isomer, unassigned) [Example 382]
Second: Cc1cc(CC(=O)Nc2cc([C@H]3CCC[C@H](OC(=O)NC4(C)CC4)CC3)[nH]n2)on1 (single isomer, unassigned) [Example 26]
The pIC50 of the first is higher: 6.00 to 6.60 for the first, 4.00 to 6.00 for the second. The first is the more potent here.

CC1(NC(=O)O[C@H]2CO[C@@H](c3cc(Nc4nccn5nc(COC(F)F)cc45)n[nH]3)C2)CC1 [Example 714] and CC1(NC(=O)O[C@H]2CO[C@@H](c3cc(Nc4nccn5nc(COC(F)(F)F)cc45)n[nH]3)C2)CC1 [Example 897] cannot be ordered by pIC50: at least 7.00 for the first, at least 7.00 for the second.

Cc1csc2nc(Nc3cc(C4CCCC4)[nH]n3)ncc12 [Example 805] and Cc1cc(C(=O)O)c(Nc2cc(C3CCCC3)[nH]n2)nc1C [Example 874] fall in the same range of pIC50: 4.00 to 6.00 for the first, 4.00 to 6.00 for the second.

Cn1nc(OCC(F)F)cc1C(=O)Nc1cc([C@H]2C[C@@H](OC(=O)NC34CC(C3)C4)CO2)n[nH]1 [Example 887] and C[C@H](NC(=O)O[C@@H]1CO[C@H](c2cc(NC(=O)c3cc(OCC(F)(F)F)nn3C)n[nH]2)C1)C1CC1 [Example 920] cannot be ordered by pIC50: at least 7.00 for the first, at least 7.00 for the second.

CC(C)NC(=O)O[C@H]1CO[C@@H](c2cc(Nc3nccn4nc(COC(F)F)cc34)n[nH]2)C1 [Example 667] and COCc1cc2c(Nc3cc([C@H]4C[C@@H](OC(=O)NC(C)(C)C(F)F)CO4)[nH]n3)nccn2n1 [Example 647] cannot be ordered by pIC50: at least 7.00 for the first, at least 7.00 for the second.

First: COCc1cc(C(=O)Nc2cc([C@H]3CC[C@@H](c4ccc(C)[nH]c4=O)C3)[nH]n2)n(C)n1 (racemic) [Example 518]
Second: COCc1cc(C(=O)Nc2cc([C@H]3CC[C@@H](c4cnc(C)cn4)C3)[nH]n2)n(C)n1 (single isomer, unassigned) [Example 576]
The pIC50 of the first is higher: 6.00 to 6.60 for the first, 4.00 to 6.00 for the second. The first is the more potent here.

First: COCc1cc(C(=O)Nc2cc([C@H]3C[C@@H](Oc4nnccc4C(C)C)CO3)[nH]n2)n(C)n1 [Example 458]
Second: COCc1cc(C(=O)Nc2cc([C@@H]3CC[C@H](Oc4cncnc4)C3)[nH]n2)n(C)n1 (single isomer, unassigned) [Example 388]
The pIC50 of the first is higher: at least 7.00 for the first, 4.00 to 6.00 for the second. The first is the more potent here.

CC1(NC(=O)O[C@H]2CO[C@@H](c3cc(Nc4ncnc5ncccc45)n[nH]3)C2)CC1 [Example 761] and CC1(NC(=O)O[C@H]2CO[C@@H](c3cc(Nc4ncnc5sncc45)n[nH]3)C2)CC1 [Example 725] cannot be ordered by pIC50: at least 7.00 for the first, at least 7.00 for the second.

Compared with COCc1cc(C(=O)Nc2cc([C@H]3CC[C@@H](c4ccc(C)[nH]c4=O)C3)[nH]n2)n(C)n1 (single isomer, unassigned) [Example 542], COCc1cc(C(=O)Nc2cc([C@H]3CC[C@H](c4ncc(C)cn4)C3)[nH]n2)n(C)n1 (single isomer, unassigned) [Example 595] is lower in pIC50: 6.00 to 6.60 for the first, 4.00 to 6.00 for the second. The first is the more potent here.

COCc1cc(C(=O)Nc2cc([C@H]3C[C@@H](COc4nncn4C(C)(C)C)C3)[nH]n2)n(C)n1 [Example 632] and COCc1cc2c(Nc3cc([C@H]4C[C@@H](OC(=O)N[C@@H](C)C5(C)COC5)CO4)[nH]n3)nccn2n1 [Example 688] cannot be ordered by pIC50: at least 7.00 for the first, 6.60 to 7.00 for the second.

CC(C)c1ccnnc1O[C@H]1CO[C@@H](c2cc(Nc3nccc4ncsc34)n[nH]2)C1 [Example 523] and COCc1nc2ccnc(Nc3cc([C@H]4C[C@@H](OC(=O)NC5(C)CC5)CO4)[nH]n3)c2s1 [Example 681] cannot be ordered by pIC50: at least 7.00 for the first, at least 7.00 for the second.

Oc1ccc2ccnc(Nc3cc(C4CCCC4)[nH]n3)c2c1 [Example 813] and CCCc1cnnc(Nc2cc(C3CCCC3)[nH]n2)c1 [Example 807] fall in the same range of pIC50: 4.00 to 6.00 for the first, 4.00 to 6.00 for the second.
